Values of other authors in US6815424B2, “Intranasal administration of polypeptides in powdered form” (Pfizer Corporation, priority 1987, dated 2004).

Details: in vivo, inhaled or intranasal

Compound: CC(C)C[C@H](NC(=O)[C@@H](Cc1ccc2ccccc2c1)NC(=O)[C@H](Cc1ccc(O)cc1)NC(=O)[C@H](CO)NC(=O)[C@H](Cc1c[nH]c2ccccc12)NC(=O)[C@H](Cc1c[nH]cn1)NC(=O)[C@@H]1CCC(=O)N1)C(=O)N[C@@H](CCCNC(=N)N)C(=O)N1CCC[C@H]1C(=O)NCC(N)=O [nafarelin acetate, L-pyroglutamyl-L-histidyl-L-tryptophyl-L-seryl-L-tyrosyl-D-3-(2-naphthyl)alanyl-L-leucyl-L-arginyl-L-prolyl-glycinamide]
- bioavailability compared to injection: about 2%
